Assay [1] has as its target Cyclin-dependent kinase 7/ cyclin H (Homo sapiens, UniProt P50613). Put plainly: Inhibition of recombinant human full length CDK7/cyclin H1 expressed in Sf9 cells incubated for 10 mins by ADP-Glo reagent assay. (ADP-Glo first removes unused ATP, then detects ADP through luciferase.)
In assay [2] the target is T1, Protein deacetylase HDAC6 (Homo sapiens, UniProt Q9UBN7).
T1 sequence (Q9UBN7 whole entry): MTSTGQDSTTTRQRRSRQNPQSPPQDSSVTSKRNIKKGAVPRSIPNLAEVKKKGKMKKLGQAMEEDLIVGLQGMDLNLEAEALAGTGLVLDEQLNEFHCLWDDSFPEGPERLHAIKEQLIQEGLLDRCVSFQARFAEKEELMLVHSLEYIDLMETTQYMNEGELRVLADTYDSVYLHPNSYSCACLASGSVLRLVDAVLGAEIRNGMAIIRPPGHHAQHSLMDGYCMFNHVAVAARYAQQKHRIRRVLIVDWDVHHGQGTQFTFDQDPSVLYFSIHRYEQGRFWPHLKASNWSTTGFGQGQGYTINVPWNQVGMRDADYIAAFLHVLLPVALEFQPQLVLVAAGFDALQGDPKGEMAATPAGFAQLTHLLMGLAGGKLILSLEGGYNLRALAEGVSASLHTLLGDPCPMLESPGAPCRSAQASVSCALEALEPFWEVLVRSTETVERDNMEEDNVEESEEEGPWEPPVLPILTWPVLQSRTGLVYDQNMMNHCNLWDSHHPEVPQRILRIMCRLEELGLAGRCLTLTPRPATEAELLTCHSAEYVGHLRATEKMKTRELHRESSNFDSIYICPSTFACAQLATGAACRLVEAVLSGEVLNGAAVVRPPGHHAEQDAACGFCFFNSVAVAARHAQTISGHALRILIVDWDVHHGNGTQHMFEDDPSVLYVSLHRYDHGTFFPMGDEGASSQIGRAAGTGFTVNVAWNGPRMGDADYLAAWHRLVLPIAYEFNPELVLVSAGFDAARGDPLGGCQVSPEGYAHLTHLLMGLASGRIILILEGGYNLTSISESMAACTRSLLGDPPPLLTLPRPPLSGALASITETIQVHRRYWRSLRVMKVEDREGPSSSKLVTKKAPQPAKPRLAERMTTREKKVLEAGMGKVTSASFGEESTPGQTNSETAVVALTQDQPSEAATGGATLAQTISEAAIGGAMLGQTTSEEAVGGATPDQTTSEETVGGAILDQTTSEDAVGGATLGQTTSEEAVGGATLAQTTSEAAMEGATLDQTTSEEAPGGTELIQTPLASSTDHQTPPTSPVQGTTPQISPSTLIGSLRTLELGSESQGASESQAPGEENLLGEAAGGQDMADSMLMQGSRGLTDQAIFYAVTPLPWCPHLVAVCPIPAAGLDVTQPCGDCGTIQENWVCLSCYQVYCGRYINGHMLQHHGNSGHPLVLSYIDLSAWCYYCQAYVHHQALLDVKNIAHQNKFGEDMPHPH
Description: Inhibition of human recombinant HDAC6 preincubated for 10 mins followed by addition of substrate fluor De Lys SIRT1 deacetylase measured after 30 mins by fluorescent plate reader analysis.

The nature of assay [3]: Cytotoxicity against mouse NIH/3T3 cells incubated for 72 hrs by CCK-8 assay. It counts as cell-based. The settings on record: NIH3T3, 72 h. For orientation: Formazan colour is commonly taken as a measure of viable cells.
Another assay deals with Histone deacetylase 2 (Homo sapiens, UniProt Q92769). Description: Inhibition of human recombinant HDAC2 preincubated for 10 mins followed by addition of substrate fluor De Lys green measured after 30 mins by fluorescent plate reader analysis.
The target in another assay is CDK1/Cyclin A (Homo sapiens, UniProt P06493). Description: Inhibition of recombinant human full length CDK1/cyclin A2 expressed in Sf9 cells incubated for 10 mins by ADP-Glo reagent assay.
Assay [4] concerns A-375. Put plainly: Induction of apoptosis in human A375 cells assessed as number of apoptotic cells at 2 uM incubated for 48 hrs by annexin V-FITC/PI based flow cytometric analysis relative to control. It counts as functional.
Another assay has as its target T2, Histone deacetylase 8 (Homo sapiens, UniProt Q9BY41).
T2 sequence (Q9BY41 whole entry): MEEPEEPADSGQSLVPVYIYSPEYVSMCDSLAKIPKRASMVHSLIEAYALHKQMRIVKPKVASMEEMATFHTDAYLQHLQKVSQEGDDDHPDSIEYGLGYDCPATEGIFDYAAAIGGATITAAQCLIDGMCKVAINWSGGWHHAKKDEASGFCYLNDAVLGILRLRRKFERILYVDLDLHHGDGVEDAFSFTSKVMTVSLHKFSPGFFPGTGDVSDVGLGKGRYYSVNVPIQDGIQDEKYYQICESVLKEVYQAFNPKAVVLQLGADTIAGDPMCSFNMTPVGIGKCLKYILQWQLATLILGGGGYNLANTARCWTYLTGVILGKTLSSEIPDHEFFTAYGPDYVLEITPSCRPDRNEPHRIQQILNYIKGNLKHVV
Put plainly: Inhibition of human recombinant HDAC8 preincubated for 10 mins followed by substrate addition measured after 30 mins by fluorescent plate reader analysis.

Assay [5] has as its system A-375. Put plainly: Cell cycle arrest in human A375 cells assessed as increase in number of cells at G2/M phase at 0.5 to 2 uM incubated for 24 hrs by propidium iodide staining based flow cytometry. The format is functional. Particulars: dose 0.5-2 µM. In general terms: In flow cytometry, cells or beads pass a laser one at a time.
The target in assay [6] is Histone deacetylase 3/NCoR1 (Homo sapiens, UniProt O15379). Put plainly: Inhibition of human recombinant HDAC3/NCOR1 complex preincubated for 10 mins followed by addition of substrate fluor De Lys SIRT1 deacetylase measured after 30 mins by fluorescent plate reader analysis. It counts as protein-complex assay.
The subject of assay [7] is NCI-H460. Put plainly: Cell cycle arrest in human H460 cells assessed as increase in number of cells at G2/M phase at 0.5 to 2 uM incubated for 24 hrs by propidium iodide staining based flow cytometry. It counts as functional. Particulars: dose 0.5-2 µM.
The test system of assay [8] is HCT-116. Description: Induction of apoptosis in human HCT116 cells assessed as number of apoptotic cells at 2 uM incubated for 48 hrs by annexin V-FITC/PI based flow cytometric analysis relative to control. It counts as functional.
For assay [9], the target named is Cyclin-dependent kinase 4/cyclin D1 (Homo sapiens, UniProt P11802). Put plainly: Inhibition of recombinant human full length CDK4/cyclin D1 expressed in Sf9 cells incubated for 10 mins by ADP-Glo reagent assay.
The target of another assay is Histone deacetylase 1 (Homo sapiens, UniProt Q13547). Description: Inhibition of human recombinant HDAC1 preincubated for 10 mins followed by addition of substrate fluor De Lys SIRT1 deacetylase measured after 30 mins by fluorescent plate reader analysis.
The next assay has as its target CDK2/Cyclin A2 (Homo sapiens, UniProt P24941). Put plainly: Inhibition of recombinant human full length CDK2/cyclin A2 incubated for 10 mins by ADP-Glo reagent assay. The format is protein-complex assay.
Assay [10] has as its system NCI-H460. Put plainly: cells. It counts as functional, cell-based. The settings on record: Homo sapiens, NCI-H460, 72 h.
Description: Antiproliferative activity against human H460 cells assessed as inhibition of cell growth incubated for 72 hrs by CCK-8 assay
Another assay deals with SMMC-7721. Description: cells. The settings on record: Homo sapiens, SMMC-7721, 72 h. The format is functional, cell-based.
Assay [11] deals with A-375. Description: Cell cycle arrest in human A375 cells assessed as increase in number of cells at G2/M phase at 2 uM incubated for 24 hrs by propidium iodide staining based flow cytometry (reference value: 1.13%). The format is functional.
Assay [12] relates to HCT-116. Put plainly: cells. The format is functional. Particulars: Homo sapiens, time 72 hrs, read-out: GI.

As usually defined, the IC50 is the concentration needed to halve the response being measured.

SMILES strings stand for the structures. Calls of active or inactive are those of the source. The calls are words filed in the database; no cut-off is given here.

Description for SMMC-7721: Antiproliferative activity against human SMMC7721 cells assessed as inhibition of cell growth incubated for 72 hrs by CCK-8 assay

Turning to `Nc1ccccc1NC(=O)Cc1ccc(NC(=O)c2n[nH]cc2NC(=O)c2c(Cl)cccc2Cl)cc1`, the IC50 is more than 1 µM in assay [1]; more than 1 µM in assay [2]; 4.64 µM in assay [3]; 0.00024 µM at Histone deacetylase 2; 0.0126 µM on CDK1/Cyclin A; more than 1 µM on Histone deacetylase 8. Further, the IC50 is more than 1 µM in assay [6]; more than 1 µM in assay [9]; 0.24 µM at Histone deacetylase 1; 0.00056 µM at CDK2/Cyclin A2; 2.63 µM in the assay on NCI-H460 [10]; 5.22 µM in the assay on SMMC-7721. Besides, the Activity in the assay on A-375 [4] was 73.08%; with HCT-116 [8], 77.1%; in the assay with A-375 [11], 66.48%. Further, the result with A-375 [5] and with NCI-H460 [7] was Active. For the same compound, the inhibition of growth at 2 µM in the assay with HCT-116 [12] is 72.9%.

As to `Nc1ccccc1NC(=O)c1ccc(CNC(=O)c2n[nH]cc2NC(=O)c2c(Cl)cccc2Cl)cc1`, the IC50 is more than 1 µM in [1]; more than 1 µM in assay [2]; 4.47 µM in [3]; 0.00025 µM on Histone deacetylase 2; 0.00863 µM at CDK1/Cyclin A; more than 1 µM on Histone deacetylase 8. The IC50 in [6] is 0.045 µM; in assay [9], more than 1 µM; at Histone deacetylase 1 it was 0.0064 µM; at CDK2/Cyclin A2 it was 0.0003 µM; in the assay with NCI-H460 [10] it was 4.19 µM; in the assay on SMMC-7721, 7.76 µM. In addition, the results for the Activity in the assay on A-375 [4], with HCT-116 [8] and in the assay with A-375 [11] were 97.22%, 60.6% and 57.74%, respectively. The result with A-375 [5] and in the assay on NCI-H460 [7] was Active. In addition, the inhibition of growth at 2 µM in the assay on HCT-116 [12] was found to be 73.8%.
